What was measured:
PCa cells = assay: Colony forming ability of PCa cells; format: cell-based; details: data not shown
Description: Identification of novel inhibitor of HSP60-ClpP interaction that disrupts UPR^mt function and induces PCa cell death. Having shown that two arms of UPR^mt, HSP60 chaperonin and ClpP protease interact and play critical role in PCa cell survival, an in silico analysis was performed and a small molecule library (developed by Enamine Ltd) was screened to identify drugs targeting the apical domain of HSP60 critical for its interaction with ClpP. 9 compounds (A-I) were identified and screened for their cell death inducing potential in PCa cells (data not shown). […] Colony forming ability of PCa cells was inhibited by DCEM1 treatment (data not shown).

TKO prostate tumors = assay: Spontaneous prostate tumor in PTEN:Rb:p53 knockout (TKO) animals; format: in vivo, mice
Description: (§1) FIG. 8. Pharmacological inhibition of HSP60-ClpP inhibit oncogenic signaling and PCa tumor growth in vivo. (A) LNCaP, PC-3 and 22RV1 cells were treated with DCEM1 and analyzed for c-Myc and EZH2 protein expression after 24 hours of treatment. (B) LNCaP, 22RV1 and VCaP cells were treated with DCEM1 and analyzed for AR and PSA protein expression after 24 hours of treatment. (C-D) 22RV1 cells (1×10^6 cells) were mixed with matrigel (50:50 v/v) and injected into each flank of SCID mice and treated with DCEM1 (60 mg/kg bw) through IP route twice weekly and tumors were harvested, photographed (C) and weighed (D) at 30 days. (E) DEVDase activity were analyzed in 22RV1 xenograft tumor tissue following DCEM1 treatment and represented as fold change compared to control. (F) 22RV1 xenograft tissue were sectioned and expression of ki67, c-Myc and EZH2 proteins were analyzed by Immunohistochemistry as described in material and methods. (G-H) PC-3 cells (1×10^6 cells) were mixed with matrigel (50:50 v/v) and injected into each flank of SCID mice and treated with DCEM1 (60 mg/kg bw) through IP route twice weekly and tumors were harvested, photographed (G) and weighed (H) at 35 days. (I) DEVDase activity were analyzed in PC-3 xenograft tumor tissue following DCEM1 treatment and represented as fold change compared to control. (J) PC-3 xenograft tumor tissue were fixed and sections were used for in situ PLA to analyze HSP60-ClpP interaction in these tissue samples. (K) PBCre4:PTEN F/F: Rb F/F: p53 F/F (TKO) animals were treated with either vehicle (Normal saline: DMSO: Kolliphor HS15; 70:5:200 v/v) or DCEM1 (60 mg/kg bw in vehicle) twice weekly from 10 weeks of age. All animals were sacrificed at 16 weeks of age and whole genitourinary tract was harvested and weighed. (L) PBCre4:PTEN F/F: Rb F/F: p53 F/F (TKO) animals were treated with either vehicle (Normal saline:DMSO:Kolliphor HS15; 70:5:200 v/v) or DCEM1 (60 mg/kg bw in vehicle) twice weekly from 10 weeks of age. All animals were sacrificed at 16 weeks of age and imaged by MRI. (M) PBCre4:PTEN F/F: Rb F/F: p53 F/F (TKO) animals were treated with either vehicle (Normal saline:DMSO:Kolliphor HS15; 70:5:200 v/v) or DCEM1 (60 mg/kg bw in vehicle) twice weekly from 10 weeks of age. […] All animals were sacrificed at 16 weeks of age and prostate tissue and tumors were harvested, whole cell lysate were prepared and analyzed for HSP60 and ClpP expression (N); c-Myc and EZH2 expression (0) and SYP and CK 8/18 expression (P) by immunoblotting. […]
(§2) Ablation of HSP60-ClpP interaction by DCEM1 downregulates c-Myc, EZH2 and AR as well as inhibits tumor growth in vivo. […] The effect of DCEM1 on 22RV1 (AR positive) and PC-3 (AR negative) xenografts growth in SCID mice was analyzed. […]

[1] = tested on: PC-3 (AR negative) xenografts; assay: PC-3 xenograft in SCID mice; format: in vivo; details: 60 mg/kg bw
Description: as §1, with “samples.” for “samples. (K) PBCre4:PTEN F/F: Rb F/F: p53 F/F (TKO) animals were treated with either vehicle (Normal saline: DMSO: Kolliphor HS15; 70:5:200 v/v) or DCEM1 (60 mg/kg bw in vehicle) twice weekly from 10 weeks of age. All animals were sacrificed at 16 weeks of age and whole genitourinary tract was harvested and weighed. (L) PBCre4:PTEN F/F: Rb F/F: p53 F/F (TKO) animals were treated with either vehicle (Normal saline:DMSO:Kolliphor HS15; 70:5:200 v/v) or DCEM1 (60 mg/kg bw in vehicle) twice weekly from 10 weeks of age. All animals were sacrificed at 16 weeks of age and imaged by MRI. (M) PBCre4:PTEN F/F: Rb F/F: p53 F/F (TKO) animals were treated with either vehicle (Normal saline:DMSO:Kolliphor HS15; 70:5:200 v/v) or DCEM1 (60 mg/kg bw in vehicle) twice weekly from 10 weeks of age.”
as §2

[2] = tested on: 22RV1 (AR positive) xenografts; assay: 22RV1 xenograft in SCID mice; format: in vivo; details: 60 mg/kg bw
Description: as §1, with “samples.” for “samples. (K) PBCre4:PTEN F/F: Rb F/F: p53 F/F (TKO) animals were treated with either vehicle (Normal saline: DMSO: Kolliphor HS15; 70:5:200 v/v) or DCEM1 (60 mg/kg bw in vehicle) twice weekly from 10 weeks of age. All animals were sacrificed at 16 weeks of age and whole genitourinary tract was harvested and weighed. (L) PBCre4:PTEN F/F: Rb F/F: p53 F/F (TKO) animals were treated with either vehicle (Normal saline:DMSO:Kolliphor HS15; 70:5:200 v/v) or DCEM1 (60 mg/kg bw in vehicle) twice weekly from 10 weeks of age. All animals were sacrificed at 16 weeks of age and imaged by MRI. (M) PBCre4:PTEN F/F: Rb F/F: p53 F/F (TKO) animals were treated with either vehicle (Normal saline:DMSO:Kolliphor HS15; 70:5:200 v/v) or DCEM1 (60 mg/kg bw in vehicle) twice weekly from 10 weeks of age.”
as §2

[3] = 60 mg/kg bw twice weekly, 10 to 16 weeks of age, immunoblotting

CCOc1cc(CNCc2nc3ccccc3[nH]2)ccc1OCc1cccs1 [DCEM1]
colony forming ability of PCa cells (PCa cells): inhibited | prostate tumor growth in TKO mice (GU weight, tumor volume by MRI) (TKO prostate tumors; 60 mg/kg bw twice weekly from 10 weeks to 16 weeks of age): significantly inhibited prostate tumor growth | HSP60 and ClpP expression in TKO prostatic tissue (TKO prostate tumors; [3]): downregulated HSP60 and ClpP expression | SYP and CK 8/18 expression in TKO tumor tissues (TKO prostate tumors; [3]): downregulated SYP and up regulated CK 8/18 expression | c-Myc and EZH2 in TKO prostatic tissue (TKO prostate tumors; [3]): depletion of c-Myc and EZH2 | HSP60-ClpP interaction by in situ PLA in PC-3 xenograft tumors [1]: inhibited HSP60-ClpP interaction | caspase-3 (DEVDase) activity in PC-3 xenograft tumors ([1]; IP, twice weekly): induced | tumor volume and weight, PC-3 xenografts ([1]; IP, twice weekly, 35 days): effectively inhibited | caspase-3 (DEVDase) activity in 22RV1 xenograft tumors ([2]; IP, twice weekly): induced | tumor volume and weight, 22RV1 xenografts ([2]; IP, twice weekly, 30 days): effectively inhibited | expression of Ki67, c-Myc, EZH2 and AR in 22RV1 xenograft ([2]; immunohistochemistry): downregulated expression of Ki67, c-Myc, EZH2 and AR

Reference: patent US20240009174A1, “METHODS FOR DISRUPTING MITOCHONDRIAL UNFOLDED PROTEIN RESPONSE” (Health Research, Inc., priority 2020, published 2024)
